# Target: human recombinant GABAA α5β3γ2 receptor (Homo sapiens (Human), UniProt P18507+P31644)
# Assay: Radioligand ([3H]Ro151788) receptor binding assay
# Conditions: membranes of HEK cells expressing human recombinant GABAA α5β3γ2; 0.5 nM [3H]Ro151788; 60 minutes at 4° C.; read-out: hGABAA α5 Ki
# Method: The GABAA α5β3γ2 protein used for the receptor binding assay was derived from membranes produced from HEK cells (Millipore CYL3073) expressing the human recombinant GABAA α5β3γ2 receptor. Cells were stored and cultured in-house according to the instructions provided by the vendor (Millipore). Cell pellet was homogenized in 10 times modified Krebs Henseleit buffer (membrane preparation buffer): 20 mM Tris, 120 mM NaCl, 100 mM KCl, 25 mM CaCl2 and 25 mM MgCl2 pH=7.4 at 4° C. using Ultra Turrax (Janke&Kunkel) maximal speed for 15 seconds. The homogenate was centrifuged at 40,000 g for 30 minutes at 4° C. Supernatant was discarded and the resulting pellet was washed in membrane preparation buffer. Pellet was resuspended in membrane preparation buffer and aliquots of 1.4 mL ampules were stored at −70° C. until use.
# Receptor binding assays were performed in 96-well format in deep-well plates. For each 96-well plate one ampule of membrane homogenate was thawed and diluted in binding buffer (50 mM Tris pH=7.4, 100 mM KCl) and 200 μL was dispensed into each well. Radioligand [^3H]Ro151788 (Perkin Elmer: NET757250UC) was prepared in binding buffer and added to each well in 50 μL volume to give final concentration of 0.5 nM. Test compounds in suitable concentration(s) were added in additional 50 μL. The final assay volume was 300 μL. Incubation was carried out for 60 minutes at 4° C. For non-specific binding 10 μM unlabeled diazepam was used. After incubation samples were filtered over UniFilter® GF/BT using Filtermate Harvester (Perkin Elmer) and washed with 5×1 mL binding buffer. The plate was dried at 40° C. for an hour and 40 μL Microscint (Perkin Elmer) scintillation cocktail was added to each well. The plate was read in Microbeta (Perkin Elmer).
# The specific radioligand binding (SB) was defined as the difference between total binding (Tot) and the non-specific binding (NSB). Results are expressed as a percent inhibition of specific binding obtained in the presence of compound of interest.
# For IC50 and Ki determination a minimum of six drug concentrations in triplicate were used. IC50 values (i.e. concentration of compound giving 50% inhibition of specific binding) were calculated from concentration-displacement curves by sigmoidal fitting using Origin 7.5 software. Ki values (i.e. inhibition constants) were calculated using the Cheng-Prusoff equation Ki=IC50/[1+(L/KD)], where [L] is the radioligand concentration and KD the affinity of the labelled ligand for receptor. KD was determined from the Saturation analyses.
# Chain of human recombinant GABAA α5β3γ2 receptor (P31644 32-462): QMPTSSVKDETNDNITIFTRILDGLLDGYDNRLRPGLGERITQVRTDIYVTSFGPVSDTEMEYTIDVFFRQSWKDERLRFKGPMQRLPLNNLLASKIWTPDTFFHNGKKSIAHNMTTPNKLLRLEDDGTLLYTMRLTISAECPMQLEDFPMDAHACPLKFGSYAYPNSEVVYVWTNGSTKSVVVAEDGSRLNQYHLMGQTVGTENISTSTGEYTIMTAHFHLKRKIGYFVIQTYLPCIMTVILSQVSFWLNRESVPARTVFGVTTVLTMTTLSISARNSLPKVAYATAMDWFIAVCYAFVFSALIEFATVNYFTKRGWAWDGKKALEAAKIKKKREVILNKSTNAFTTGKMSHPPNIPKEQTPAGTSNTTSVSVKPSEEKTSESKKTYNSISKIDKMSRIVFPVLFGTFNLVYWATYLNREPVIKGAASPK
# Chain of human recombinant GABAA α5β3γ2 receptor (P28472 26-473 partner): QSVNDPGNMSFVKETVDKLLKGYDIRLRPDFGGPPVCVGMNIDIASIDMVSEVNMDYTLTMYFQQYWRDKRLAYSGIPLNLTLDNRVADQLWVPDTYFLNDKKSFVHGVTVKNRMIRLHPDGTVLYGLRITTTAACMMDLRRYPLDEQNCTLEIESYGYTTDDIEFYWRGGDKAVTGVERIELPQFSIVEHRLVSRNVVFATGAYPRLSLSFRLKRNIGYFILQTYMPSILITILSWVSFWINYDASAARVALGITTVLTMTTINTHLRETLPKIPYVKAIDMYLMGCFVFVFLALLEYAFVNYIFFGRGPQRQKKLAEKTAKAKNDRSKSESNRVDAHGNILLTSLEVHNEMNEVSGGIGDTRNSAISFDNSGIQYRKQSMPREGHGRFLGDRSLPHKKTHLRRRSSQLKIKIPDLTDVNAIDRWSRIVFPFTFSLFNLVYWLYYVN
# Chain of human recombinant GABAA α5β3γ2 receptor (P18507 40-475): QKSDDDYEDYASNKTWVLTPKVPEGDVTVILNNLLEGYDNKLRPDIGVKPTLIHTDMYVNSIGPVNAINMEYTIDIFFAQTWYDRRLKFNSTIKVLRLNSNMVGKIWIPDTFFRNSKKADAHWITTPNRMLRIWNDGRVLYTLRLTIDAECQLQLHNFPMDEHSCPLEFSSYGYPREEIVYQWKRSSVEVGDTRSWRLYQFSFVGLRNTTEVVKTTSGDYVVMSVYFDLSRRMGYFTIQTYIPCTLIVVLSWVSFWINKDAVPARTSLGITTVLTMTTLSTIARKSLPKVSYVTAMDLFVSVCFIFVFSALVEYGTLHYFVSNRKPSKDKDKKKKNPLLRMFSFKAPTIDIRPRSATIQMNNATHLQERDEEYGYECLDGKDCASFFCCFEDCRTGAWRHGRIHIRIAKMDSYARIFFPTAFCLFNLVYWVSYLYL
row,SMILES,Ki [nM]
1,"Cc1ccc(-n2nnc(C)c2COc2cc3c(cn2)CN(C(=O)CF)CC3)cn1 [Example 38, 2-fluoro-1-(6-{[4-methyl-1-(6-methylpyridin-3-yl)-1H-1,2,3-triazol-5-yl]methoxy}-1,2,3,4-tetrahydro-2,7-naphthyridin-2-yl)ethan-1-one]",6.6
2,"Cc1nnn(-c2ccc(C(F)(F)F)nc2)c1COc1cc2c(cn1)CN(C(=O)CF)CC2 [Example 49, 2-fluoro-1-[6-({4-methyl-1-[6-(trifluoromethyl)pyridin-3-yl]-1H-1,2,3-triazol-5-yl}methoxy)-1,2,3,4-tetrahydro-2,7-naphthyridin-2-yl]ethan-1-one]",15
3,"Cc1ccc(-c2nnn(C)c2COc2cc3c(cn2)CN(C(=O)CF)CC3)cn1 [Example 68, 2-fluoro-1-(6-{[1-methyl-4-(6-methylpyridin-3-yl)-1H-1,2,3-triazol-5-yl]methoxy}-1,2,3,4-tetrahydro-2,7-naphthyridin-2-yl)ethan-1-one]",9.1
4,"Cc1ccc(-c2noc(C)c2COc2cc3c(nn2)CN(C(=O)CF)CC3)cn1 [Example 30, 2-fluoro-1-(3-{[5-methyl-3-(6-methylpyridin-3-yl)-1,2-oxazol-4-yl]methoxy}-5H,6H,7H,8H-pyrido[3,4-c]pyridazin-7-yl)ethan-1-one]",1.9
5,"Cc1ccc(-c2noc(C)c2COc2cc3c(nn2)CN(C(=O)C2CCOCC2)CC3)cn1 [Example 27, 2-methyl-5-[5-methyl-4-({[7-(oxane-4-carbonyl)-5H,6H,7H,8H-pyrido[3,4-c]pyridazin-3-yl]oxy}methyl)-1,2-oxazol-3-yl]pyridine]",10
6,"CCC(=O)N1CCc2cc(OCc3c(C)nnn3-c3ccc(C)nc3)ncc2C1 [Example 43, 1-(6-{[4-methyl-1-(6-methylpyridin-3-yl)-1H-1,2,3-triazol-5-yl]methoxy}-1,2,3,4-tetrahydro-2,7-naphthyridin-2-yl)propan-1-one]",20
7,"Cc1ccc(-c2nnn(C)c2COc2cc3c(cn2)CN(C(=O)C2CC2)CC3)cn1 [Example 65, 2-cyclopropanecarbonyl-6-{[1-methyl-4-(6-methylpyridin-3-yl)-1H-1,2,3-triazol-5-yl]methoxy}-1,2,3,4-tetrahydro-2,7-naphthyridine]",52
8,"Cc1nnn(-c2ccc(C(F)(F)F)nc2)c1COc1cc2c(cn1)CN(C(=O)C1CC1)CC2 [Example 51, 2-cyclopropanecarbonyl-6-({4-methyl-1-[6-(trifluoromethyl)pyridin-3-yl]-1H-1,2,3-triazol-5-yl}methoxy)-1,2,3,4-tetrahydro-2,7-naphthyridine]",31
9,"Cc1ccc(-c2noc(C)c2COc2cc3c(cn2)CN(C(=O)OC(C)(C)C)CC3)cn1 [Example 2, tert-butyl 6-{[5-methyl-3-(6-methylpyridin-3-yl)-1,2-oxazol-4-yl]methoxyl}-1,2,3,4-tetrahydro-2,7-naphthyridine-2-carboxylate]",38
10,"Cc1ccc(-c2nnn(C)c2COc2cc3c(cn2)CN(C(=O)C(C)C)CC3)cn1 [Example 63, 2-methyl-1-(6-{[1-methyl-4-(6-methylpyridin-3-yl)-1H-1,2,3-triazol-5-yl]methoxy}-1,2,3,4-tetrahydro-2,7-naphthyridin-2-yl)propan-1-one]",43
11,"Cc1ccc(-c2noc(C)c2COc2cc3c(cn2)CN(C(=O)C2CCOCC2)CC3)cn1 [Example 10, 6-{[5-methyl-3-(6-methylpyridin-3-yl)-1,2-oxazol-4-yl]methoxy}-2-(oxane-4-carbonyl)-1,2,3,4-tetrahydro-2,7-naphthyridine]",17
12,"Cc1ccc(-n2nnc(C)c2COc2cc3c(cn2)CN(C(=O)CC(C)C)CC3)cn1 [Example 41, 3-methyl-1-(6-{[4-methyl-1-(6-methylpyridin-3-yl)-1H-1,2,3-triazol-5-yl]methoxy}-1,2,3,4-tetrahydro-2,7-naphthyridin-2-yl)butan-1-one]",48
13,"CC(=O)N1CCc2cc(OCc3c(C)nnn3-c3ccc(C(F)(F)F)nc3)nnc2C1 [Example 53, 1-[3-({4-methyl-1-[6-(trifluoromethyl)pyridin-3-yl]-1H-1,2,3-triazol-5-yl}methoxy)-5,8-dihydropyrido[3,4-c]pyridazin-7(6H)-yl]ethanone]",99.1
14,"CCC(=O)N1CCc2cc(OCc3c(-c4ccc(C)nc4)nnn3C)ncc2C1 [Example 62, 1-(6-{[1-methyl-4-(6-methylpyridin-3-yl)-1H-1,2,3-triazol-5-yl]methoxy}-1,2,3,4-tetrahydro-2,7-naphthyridin-2-yl)propan-1-one]",33
15,"Cc1ccc(-c2noc(C)c2COc2cc3c(cn2)CN(C(=O)C2CC(=O)N(C(C)C)C2)CC3)cn1 (centres unmarked) [Example 16, 4-(6-{[5-methyl-3-(6-methylpyridin-3-yl)-1,2-oxazol-4-yl]methoxy}-1,2,3,4-tetrahydro-2,7-naphthyridine-2-carbonyl)-1-(propan-2-yl)pyrrolidin-2-one]",11
16,"Cc1ccc(-c2noc(C)c2COc2cc3c(cn2)CN(C(=O)[C@@H]2CCC(=O)N2C)CC3)cn1 [Example 22, (5S)-1-methyl-5-(6-{[5-methyl-3-(6-methylpyridin-3-yl)-1,2-oxazol-4-yl]methoxy}-1,2,3,4-tetrahydro-2,7-naphthyridine-2-carbonyl)pyrrolidin-2-one]",9.4

# The next lines start with the values.
row,Ki [nM],SMILES
1,4.3,"Cc1ccc(-c2noc(C)c2COc2cc3c(nn2)CN(C(=O)C(C)C)CC3)cn1 [Example 31, 2-methyl-1-(3-{[5-methyl-3-(6-methylpyridin-3-yl)-1,2-oxazol-4-yl]methoxy}-5H,6H,7H,8H-pyrido[3,4-c]pyridazin-7-yl)propan-1-one]"
2,6.9,"CCN1CC(C(=O)N2CCc3cc(OCc4c(-c5ccc(C)nc5)noc4C)ncc3C2)CC1=O (centres unmarked) [Example 23, 1-ethyl-4-(6-{[5-methyl-3-(6-methylpyridin-3-yl)-1,2-oxazol-4-yl]methoxy}-1,2,3,4-tetrahydro-2,7-naphthyridine-2-carbonyl)pyrrolidin-2-one]"
3,8.3,"Cc1ccc(-c2noc(C)c2COc2cc3c(cn2)CN(C(=O)C2CC(=O)N(C)C2)CC3)cn1 (centres unmarked) [Example 15, 1-methyl-4-(6-{[5-methyl-3-(6-methylpyridin-3-yl)-1,2-oxazol-4-yl]methoxy}-1,2,3,4-tetrahydro-2,7-naphthyridine-2-carbonyl)pyrrolidin-2-one]"
4,2.2,"Cc1ccc(-c2noc(C)c2COc2cc3c(nn2)CN(C(=O)NC2CC2)CC3)cn1 [Example 33, N-cyclopropyl-3-{[5-methyl-3-(6-methylpyridin-3-yl)-1,2-oxazol-4-yl]methoxy}-5H,6H,7H,8H-pyrido[3,4-c]pyridazine-7-carboxamide]"
5,1.6,"CCC(=O)N1CCc2cc(OCc3c(C)nnn3-c3ccc(C(F)F)nc3)ncc2C1 [Example 56, 1-[6-({1-[6-(difluoromethyl)pyridin-3-yl]-4-methyl-1H-1,2,3-triazol-5-yl}methoxy)-3,4 dihydro-2,7-naphthyridin-2(1H)-yl]propan-1-one]"
6,7.2,"Cc1ccc(-c2noc(C)c2COc2cc3c(cn2)CN(C(=O)C2CCOC2)CC3)cn1 (centres unmarked) [Example 12, 6-{[5-methyl-3-(6-methylpyridin-3-yl)-1,2-oxazol-4-yl]methoxy}-2-(oxolane-3-carbonyl)-1,2,3,4-tetrahydro-2,7-naphthyridine]"
7,7.9,"CC(=O)N1CCc2cc(OCc3c(C)nnn3-c3ccc(C)nc3)ncc2C1 [Example 37, 1-(6-{[4-methyl-1-(6-methylpyridin-3-yl)-1H-1,2,3-triazol-5-yl]methoxy}-1,2,3,4-tetrahydro-2,7-naphthyridin-2-yl)ethan-1-one]"
8,2.3,"CC(=O)N1CCc2cc(OCc3c(-c4ccc(C)nc4)noc3C)nnc2C1 [Example 24, 1-(3-{[5-methyl-3-(6-methylpyridin-3-yl)-1,2-oxazol-4-yl]methoxy}-5H,6H,7H,8H-pyrido[3,4-c]pyridazin-7-yl)ethan-1-one]"
9,4.4,"Cc1ccc(-c2noc(C)c2COc2cc3c(nn2)CN(C(=O)C2CC2)CC3)cn1 [Example 28, 5-{4-[({7-cyclopropanecarbonyl-5H,6H,7H,8H-pyrido[3,4-c]pyridazin-3-yl}oxy)methyl]-5-methyl-1,2-oxazol-3-yl}-2-methylpyridine]"
10,6,"Cc1ccc(-c2noc(C)c2COc2cc3c(cn2)CN(C(=O)c2cccnc2)CC3)cn1 [Example 7, 6-{[5-methyl-3-(6-methylpyridin-3-yl)-1,2-oxazol-4-yl]methoxy}-2-(pyridine-3-carbonyl)-1,2,3,4-tetrahydro-2,7-naphthyridine]"

# From patent publication US20240067637A1, “NAPHTHYRIDINE AND PYRIDO[3,4-c]PYRIDAZINE DERIVATIVES AS GABAA ALPHA 5 RECEPTOR MODULATORS” (Richter Gedeon Nyrt., priority 2020, published 2024)
